Patent US10988482B2, “IRAK4 inhibitor and use thereof” (BEIJING HANMI PHARMACEUTICAL CO., LTD., priority 2015, dated 2021)

Molecular target: IRAK4 kinase (Homo sapiens (Human), UniProt Q9NWZ3)
Test: IRAK4 kinase activity inhibition assay (ADP-Glo)
Assay type: biochemical
Settings: 10 μM ATP, MBP substrate, 60 min at 25° C.
Method: IRAK4 kinase (purchased from Life Technologies, Cat. No.: PR5612U) was diluted to 2 folds of the final concentration (the final concentration is 0.76 ng/μL) with reaction buffer (40 mM Tris-HCl, pH 7.5; 20 mM MgCl2; 0.1 mg/mL BSA; 1 mM DTT), and added to a 384-well plate at 5 μL/well. The test drugs were 10-fold serial diluted from 10 μM to set six concentration points and added to the test wells of the 384-well plate at 2.5 μL/well. After incubation for 10 min at 25° C., 10 μM of ATP and […] of an enzyme reaction substrate, myelin basic protein MBP (purchased from SignalChem, Cat. No.: M42-51N) were added at 2.5 µL/well, and reacted at 25° C. for 60 minutes. After the reaction was completed, the kinase activity assay was performed using the ADP-Glo™ kinase assay kit (purchased from Promega, Cat. No.: V9102) according to the manufacture's instruction, i.e., 10 μL of ADP-Glo reaction reagent was first added and reacted at 25° C. for 40 minutes, 10 μL of the solution to be tested was taken and mixed with 10 μL of ADP-Glo detection reagent, and reacted at 25° C. for 30 minutes. The kinase activity was then detected, and the IC50 values of the test drugs were calculated.

Sequence of IRAK4 kinase (Q9NWZ3 whole entry): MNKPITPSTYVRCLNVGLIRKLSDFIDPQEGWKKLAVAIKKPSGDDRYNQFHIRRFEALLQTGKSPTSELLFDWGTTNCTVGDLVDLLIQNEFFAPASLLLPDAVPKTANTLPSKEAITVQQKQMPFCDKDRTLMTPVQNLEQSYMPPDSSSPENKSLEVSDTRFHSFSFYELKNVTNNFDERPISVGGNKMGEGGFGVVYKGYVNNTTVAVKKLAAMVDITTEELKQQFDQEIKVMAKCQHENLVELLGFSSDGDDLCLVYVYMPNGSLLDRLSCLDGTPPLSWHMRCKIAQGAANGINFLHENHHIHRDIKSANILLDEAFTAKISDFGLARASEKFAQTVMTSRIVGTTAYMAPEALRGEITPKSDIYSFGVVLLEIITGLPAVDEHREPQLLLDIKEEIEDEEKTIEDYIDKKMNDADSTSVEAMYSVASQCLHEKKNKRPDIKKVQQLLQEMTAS

Row | SMILES | IC50
1 | CN1CCC(N(C)c2ccc(Nc3nc(N[C@H]4CC[C@H](O)CC4)c4sccc4n3)cc2)CC1 [Compound 70] | 100 to 1000 nM
2 | C[C@]1(O)CC[C@H](Nc2nc(Nc3cccc(CC(N)=O)c3)nc3ccsc23)CC1 [Compound 72] | 1000 to 10000 nM
3 | CN1CCN(c2cccc(Nc3nc(N[C@H]4CC[C@](C)(O)CC4)c4sccc4n3)c2)CC1 [Compound 73] | 100 to 1000 nM
4 | CN1CCN(c2ccc(Nc3nc(N[C@H]4CC[C@](C)(O)CC4)c4sccc4n3)cc2)CC1 [Compound 74] | 1000 to 10000 nM
5 | CN1CCN(Cc2cc(Nc3nc(N[C@H]4CC[C@](C)(O)CC4)c4sccc4n3)sn2)CC1 [Compound 75] | 1000 to 10000 nM
6 | Cc1cc(Nc2nc(N[C@H]3CC[C@H](O)CC3)c3occc3n2)sn1 [Compound 76, trans-4-((2-((3-methylisothiazol-5-yl)amino)furo[3,2-d]pyrimidin-4-yl)amino)cyclohexanol] | 100 to 1000 nM
7 | Cc1cc(Nc2nc(N[C@H]3C[C@H](N)C3)c3sccc3n2)sn1 [Compound 77, N^4-(trans-3-aminocyclobutyl)-N^2-(3-methylisothiazol-5-yl)thieno[3,2-d]pyrimidine-2,4-diamine] | ≤ 100 nM
8 | Cc1cc(Nc2nc(N[C@H]3C[C@@H](N)C3)c3sccc3n2)sn1 [Compound 78] | ≤ 100 nM
9 | Cc1cc(Nc2nc(N[C@H]3CC[C@@H](N)CC3)c3sccc3n2)sn1 [Compound 79] | ≤ 100 nM
10 | Cc1cc(Nc2nc(N[C@H]3CC[C@H](N)CC3)c3sccc3n2)sn1 [Compound 80] | 100 to 1000 nM
11 | Cc1cc(Nc2nc(O[C@H]3CC[C@@H](N)C3)c3sccc3n2)sn1 [Compound 81] | 100 to 1000 nM
12 | Cc1cc(Nc2nc(O[C@H]3CC[C@@H](N)CC3)c3sccc3n2)sn1 [Compound 82] | 100 to 1000 nM
13 | Cc1cc(Nc2nc(O[C@H]3CC[C@H](N)CC3)c3sccc3n2)sn1 [Compound 83] | ≤ 100 nM
14 | Cn1cc(Nc2nc(N[C@H]3CC[C@@H](N)CC3)c3sccc3n2)cn1 [Compound 84] | 100 to 1000 nM
15 | Cn1cc(Nc2nc(O[C@H]3CC[C@@H](N)C3)c3sccc3n2)cn1 [Compound 85] | 100 to 1000 nM
16 | CN[C@H]1C[C@H](Nc2nc(Nc3cc(C)ns3)nc3ccsc23)C1 [Compound 86, N^4-(trans-3-(methylamino)cyclobutyl)-N^2-(3-methylisothiazol-5-yl)thieno[3,2-d]pyrimidine-2,4-diamine] | 100 to 1000 nM
17 | CN[C@H]1C[C@@H](Nc2nc(Nc3cc(C)ns3)nc3ccsc23)C1 [Compound 87] | 100 to 1000 nM
18 | CN[C@H]1CC[C@@H](Nc2nc(Nc3cc(C)ns3)nc3ccsc23)CC1 [Compound 88] | 100 to 1000 nM
19 | CN[C@H]1CC[C@H](Nc2nc(Nc3cc(C)ns3)nc3ccsc23)CC1 [Compound 89] | 100 to 1000 nM
20 | CN[C@H]1CC[C@@H](Oc2nc(Nc3cc(C)ns3)nc3ccsc23)CC1 [Compound 90] | 100 to 1000 nM
21 | Cc1cc(Nc2nc(N[C@H]3CC[C@H](N(C)C)CC3)c3sccc3n2)sn1 [Compound 91, N^4-(trans-4-(dimethylamino)cyclohexyl)-N^2-(3-methylisothiazol-5-yl)thieno[3,2-d]pyrimidine-2,4-diamine] | ≤ 100 nM
22 | Cc1cc(Nc2nc(N[C@H]3CC[C@@H](N(C)C)CC3)c3sccc3n2)sn1 [Compound 92] | 100 to 1000 nM
23 | CCN(CC)[C@H]1CC[C@@H](Nc2nc(Nc3cc(C)ns3)nc3ccsc23)CC1 [Compound 93] | 100 to 1000 nM
24 | CCN(CC)[C@H]1CC[C@H](Nc2nc(Nc3cc(C)ns3)nc3ccsc23)CC1 [Compound 94] | ≤ 100 nM
25 | Cc1cc(Nc2nc(O[C@H]3CC[C@@H](N(C)C)CC3)c3sccc3n2)sn1 [Compound 95] | ≤ 100 nM
26 | Cc1cc(Nc2nc(O[C@H]3CC[C@H](N(C)C)CC3)c3sccc3n2)sn1 [Compound 96] | ≤ 100 nM
27 | Cc1cc(Nc2nc(N[C@H]3CC[C@H](N(CCO)CCO)CC3)c3sccc3n2)sn1 [Compound 97] | ≤ 100 nM
28 | Cc1cc(Nc2nc(N[C@H]3CC[C@H](N4CCCC4)CC3)c3sccc3n2)sn1 [Compound 99] | ≤ 100 nM
29 | Cc1cc(Nc2nc(N[C@H]3CC[C@H](N4CCOCC4)CC3)c3sccc3n2)sn1 [Compound 100] | ≤ 100 nM
